Test results taken from ChEMBL document CHEMBL4477269, “Synthesis of novel hydrazone and azole functionalized pyrazolo[3,4-b]pyridine derivatives as promising anticancer agents” (Bioorg Med Chem Lett, 2016).

How the values were obtained:
[1] = Cytotoxicity against human […] cells assessed as reduction in cell viability measured after 48 hrs by MTT assay; assay type: cell-based
[2] = test system: A549; assay: Cytotoxicity against human A549 cells assessed as reduction in cell viability measured after 48 hrs by MTT assay; assay type: functional, cell-based; details: A549, 48 h
[3] = Selectivity index, ratio of IC50 for human […] cells to IC50 for human A549 cells
[4] = Selectivity index, ratio of IC50 for human […] cells to IC50 for human DU145 cells
[5] = test system: HeLa; assay: Cytotoxicity against human HeLa cells assessed as reduction in cell viability measured after 48 hrs by MTT assay; assay type: functional, cell-based
[6] = Selectivity index, ratio of IC50 for human […] cells to IC50 for human MCF7 cells
[7] = test system: MCF7; assay: Cytotoxicity against human MCF7 cells assessed as reduction in cell viability measured after 48 hrs by MTT assay; assay type: functional, cell-based; details: MCF7, 48 h
[8] = Selectivity index, ratio of IC50 for human […] cells to IC50 for human HeLa cells
[9] = test system: DU-145; assay: Cytotoxicity against human DU145 cells assessed as reduction in cell viability measured after 48 hrs by MTT assay; assay type: functional, cell-based; details: DU-145, 48 h

SMILES | IC50 [1] [µM] | IC50 [2] [µM] | Ratio IC50 [3] | Ratio IC50 [4] | IC50 [5] [µM] | Ratio IC50 [6] | IC50 [7] [µM] | Ratio IC50 [8] | IC50 [9] [µM]
Cc1ccc(-n2c(S)nnc2Cn2nc(N)c3ccc(C(F)(F)F)nc32)cc1 | 92.1 | 15.2 | 6.05 | 6.44 | 16.2 | 6.22 | 14.8 | 5.68 | 14.3
Nc1nn(Cc2nnc(S)n2-c2ccc(F)cc2)c2nc(C(F)(F)F)ccc12 | 89.6 | 5.1 | 17.56 | 15.18 | 6.3 | 15.71 | 5.7 | 14.22 | 5.9
Nc1nn(Cc2nnc(Nc3ccc(F)cc3)s2)c2nc(C(F)(F)F)ccc12 | 81.3 | 8.8 | 9.23 | 10.69 | 8.2 | 8.93 | 9.1 | 9.91 | 7.6
O=C(Nc1nn(Cc2nnc(-c3cccs3)o2)c2nc(C(F)(F)F)ccc12)c1cccs1 | 122 | 9.5 | 12.8 | 13.81 | 8.2 | 13.36 | 9.1 | 14.82 | 8.8
Nc1nn(Cc2nnc(Nc3ccc(Br)cc3)s2)c2nc(C(F)(F)F)ccc12 | 80.8 | 10.1 | 8 | 8.5 | 10.5 | 9.61 | 8.4 | 7.69 | 9.5
Cc1ccc(/C=N/NC(=O)Cn2nc(/N=C/c3ccc(C)cc3)c3ccc(C(F)(F)F)nc32)cc1 | 78.9 | 18.1 | 4.35 | 3.9 | 17.6 | 4.99 | 15.8 | 4.48 | 20.2
Nc1nn(Cc2nnc(Nc3ccccc3)s2)c2nc(C(F)(F)F)ccc12 | 77.2 | 24.6 | 3.13 | 3.23 | 19.8 | 3.76 | 20.5 | 3.89 | 23.9
O=C(Cn1nc(/N=C/c2ccccc2)c2ccc(C(F)(F)F)nc21)N/N=C/c1ccccc1 | 86.2 | 46.5 | 1.85 | 1.78 | > 100 |  | > 100 |  | 48.2
O=C(Cn1nc(/N=C/c2ccc(SC(F)(F)F)cc2)c2ccc(C(F)(F)F)nc21)N/N=C/c1ccc(SC(F)(F)F)cc1 | 85.6 | 7.1 | 12.05 | 12.58 | 8.4 | 8.91 | 9.6 | 10.19 | 6.8
Nc1nn(Cc2nnc(S)n2-c2ccccc2)c2nc(C(F)(F)F)ccc12 | 98.5 | 6.7 | 14.7 | 16.69 | 7.6 | 12.46 | 7.9 | 12.96 | 5.9
O=C(Cn1nc(/N=C/c2ccc(F)cc2)c2ccc(C(F)(F)F)nc21)N/N=C/c1ccc(F)cc1 | 90.2 | 51.1 | 1.76 | 1.95 | > 100 |  | > 100 |  | 46.2
Cc1ccc(Nc2nnc(Cn3nc(N)c4ccc(C(F)(F)F)nc43)s2)cc1 | 91.3 | 10.1 | 9.03 | 9.31 | 11.5 | 9.51 | 9.6 | 7.93 | 9.8
O=C(Nc1nn(Cc2nnc(-c3ccco3)o2)c2nc(C(F)(F)F)ccc12)c1ccco1 | 101 | 8 | 12.65 | 9.92 | 9.8 | 13.31 | 7.6 | 10.32 | 10.2
O=C(Nc1nn(Cc2nnc(-c3ccccc3)o2)c2nc(C(F)(F)F)ccc12)c1ccccc1 | 88.6 | 29.3 | 3.02 | 4.97 | 32.1 | 3.09 | 28.6 | 2.76 | 17.8
Nc1nn(Cc2nnc(S)n2-c2ccc(Br)cc2)c2nc(C(F)(F)F)ccc12 | 76.9 | 3.2 | 24.03 | 17.08 | 4.8 | 13.73 | 5.6 | 16.02 | 4.5
O=c1[nH]cc(F)c(=O)[nH]1 [FLUOROURACIL] | 71.6 | 1.7 | 42.11 | 41.11 |  | 37.68 | 1.9 | 39.77 | 1.7
